What was measured:
surinam grass = experiment: Test B pre/postemergence surinam grass; format: in vivo, Brachiaria decumbens
Outline: (§1)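 Response is a visual 0-to-10 score relative to untreated plants, where 0 means no effect and 10 means complete control, taken twelve to sixteen days after application. Treatments went onto soil at planting and onto foliage of 1- to 4-leaf plants, using a surfactant-containing non-phytotoxic solvent.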

cocklebur = experiment: Test B pre/postemergence cocklebur; format: in vivo, Xanthium strumarium
Outline: as §1

sugar beet = experiment: Test B pre/postemergence sugar beet; format: in vivo, Beta vulgaris
Outline: as §1

blackgrass = experiment: Test B pre/postemergence blackgrass; format: in vivo, Alopecurus myosuroides
Outline: as §1

morningglory = experiment: Test B pre/postemergence morningglory; format: in vivo, Ipomoea hederacea
Outline: as §1

velvetleaf = experiment: Test B pre/postemergence velvetleaf; format: in vivo, Abutilon theophrasti
Outline: as §1

corn = experiment: Test B pre/postemergence corn; format: in vivo, Zea mays
Outline: as §1

bedstraw = experiment: Test B pre/postemergence bedstraw; format: in vivo, Galium aparine
Outline: as §1

giant foxtail = experiment: Test B pre/postemergence giant foxtail; format: in vivo, Setaria faberii
Outline: as §1

purple nutsedge = experiment: Test B pre/postemergence purple nutsedge; format: in vivo, Cyperus rotundus
Outline: as §1

duck salad = experiment: Test B flood test duck salad; format: in vivo, Heteranthera limosa
Outline: (§2)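 Flood test on plants grown to the 2-leaf stage; treated plants kept in greenhouse twelve to sixteen days, then visually rated against controls on a 0 (no effect) to 10 (complete control) scale.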

rice = experiment: Test B flood test rice; format: in vivo, Oryza sativa
Outline: as §2

bamyardgrass = experiment: Test B flood test barnyardgrass; format: in vivo, Echinochloa crus-galli
Outline: as §2

pigweed = experiment: Test B pre/postemergence pigweed; format: in vivo, Amaranthus retroflexus
Outline: as §1

rape = experiment: Test B pre/postemergence rape; format: in vivo, Brassica napus
Outline: as §1

[1] = Postemergence, Rate 62 g/ha, scale 0 to 10, 0 is no effect, 10 is complete control
[2] = Postemergence, Rate 250 g/ha, scale 0 to 10, 0 no effect, 10 complete control
[3] = Preemergence, Rate 62 g/ha, scale 0 to 10, 0 is no effect, 10 is complete control
[4] = Preemergence, Rate 125 g/ha, scale 0 to 10 (0 no effect, 10 complete control)
[5] = Preemergence, Rate 250 g/ha, scale of 0 to 10 where 0 is no effect and 10 is complete control
[6] = Preemergence, Rate 500 g/ha, scale 0 (no effect) to 10 (complete control)
[7] = Rate 125 g/ha, Postemergence, scale 0 to 10, 0 no effect, 10 complete control
[8] = Rate 500 g/ha, Postemergence, 0 to 10 scale (0 no effect, 10 complete control)
[9] = Rate 62 g/ha, headed Pre-emergence (flood test species), scale 0 to 10 (0 no effect, 10 complete control)
[10] = Rate 125 g/ha, Postemergence section (flood test species), scale 0 to 10, 0 no effect, 10 complete control
[11] = Rate 125 g/ha, Pre-emergence, flood test species, scale 0 to 10 where 0 is no effect and 10 is complete control
[12] = Rate 250 g/ha, headed Pre-emergence (flood test species), scale 0 to 10 (0 no effect, 10 complete control)
[13] = Rate 500 g/ha, Postemergence section of Table B, 0 to 10 scale (0 no effect, 10 complete control)
[14] = Rate 500 g/ha, headed Pre-emergence (flood test species), scale 0 to 10 (0 no effect, 10 complete control)
[15] = Rate 1000 g/ha, Pre-emergence (as headed), scale 0 to 10
[16] = Rate 2000 g/ha, Pre-emergence (as headed), scale 0 to 10
[17] = flood test, listed under Postemergence, Rate 250 g/ha, scale 0 to 10, 0 no effect, 10 complete control

## Cc1cccc(C)c1-n1c(=O)on(C(=O)N(c2ccc(F)cc2)C(C)C)c1=O [Compound 18]
Surinam grass; [1]
  B. signalgrass plant response rating: 0
Surinam grass; [2]
  B. signalgrass plant response rating: 0
Surinam grass; [3]
  Plant response rating, B. signalgrass: 0
Surinam grass; [4]
  Plant response rating, B. signalgrass: 0
Surinam grass; [5]
  Plant response rating, B. signalgrass: 7
Surinam grass; [6]
  B. signalgrass plant response rating: 8
Surinam grass; [7]
  B. signalgrass plant response rating: 0
Surinam grass; [8]
  B. signalgrass plant response rating: 2
cocklebur; [1]
  Cocklebur plant response rating: 0
cocklebur; [2]
  Cocklebur plant response rating: 1
cocklebur; [3]
  Plant response rating, Cocklebur: 0
cocklebur; [4]
  Plant response rating, Cocklebur: 0
cocklebur; [5]
  Plant response rating, Cocklebur: 0
cocklebur; [6]
  Cocklebur plant response rating: 0
cocklebur; [7]
  Cocklebur plant response rating: 0
cocklebur; [8]
  Cocklebur plant response rating: 2
Sugar beet; [1]
  Sugarbeets plant response rating: 0
Sugar beet; [2]
  Sugarbeets plant response rating: 0
Sugar beet; [3]
  Plant response rating, Sugarbeets: 0
Sugar beet; [4]
  Plant response rating, Sugarbeets: 0
Sugar beet; [5]
  Plant response rating, Sugarbeets: 2
Sugar beet; [6]
  Sugarbeets plant response rating: 4
Sugar beet; [7]
  Sugarbeets plant response rating: 0
blackgrass; [1]
  Blackgrass plant response rating: 0
blackgrass; [2]
  Blackgrass plant response rating: 3
blackgrass; [3]
  Plant response rating, Blackgrass: 2
blackgrass; [4]
  Plant response rating, Blackgrass: 0
blackgrass; [5]
  Plant response rating, Blackgrass: 5
blackgrass; [6]
  Blackgrass plant response rating: 5
blackgrass; [7]
  Blackgrass plant response rating: 0
blackgrass; [8]
  Blackgrass plant response rating: 3
morningglory; [1]
  Morningglory plant response rating: 1
morningglory; [2]
  Morningglory plant response rating: 2
morningglory; [3]
  Plant response rating, Morningglory: 0
morningglory; [4]
  Plant response rating, Morningglory: 0
morningglory; [5]
  Plant response rating, Morningglory: 0
morningglory; [6]
  Morningglory plant response rating: 2
morningglory; [7]
  Morningglory plant response rating: 1
morningglory; [8]
  Morningglory plant response rating: 3
velvetleaf; [1]
  Velvetleaf plant response rating: 0
velvetleaf; [2]
  Velvetleaf plant response rating: 1
velvetleaf; [3]
  Plant response rating, Velvetleaf: 0
velvetleaf; [4]
  Plant response rating, Velvetleaf: 0
velvetleaf; [5]
  Plant response rating, Velvetleaf: 0
velvetleaf; [6]
  Velvetleaf plant response rating: 0
velvetleaf; [7]
  Velvetleaf plant response rating: 0
corn; [1]
  Corn plant response rating: 0
corn; [2]
  Corn plant response rating: 0
corn; [3]
  Plant response rating, Corn: 0
corn; [4]
  Plant response rating, Corn: 0
corn; [5]
  Plant response rating, Corn: 0
corn; [6]
  Corn plant response rating: 0
corn; [7]
  Corn plant response rating: 0
corn; [8]
  Corn plant response rating: 0
bedstraw; [1]
  Bedstraw plant response rating: 2
bedstraw; [2]
  Bedstraw plant response rating: 7
bedstraw; [3]
  Plant response rating, Bedstraw: 0
bedstraw; [4]
  Plant response rating, Bedstraw: 0
bedstraw; [5]
  Plant response rating, Bedstraw: 0
bedstraw; [6]
  Bedstraw plant response rating: 3
bedstraw; [7]
  Bedstraw plant response rating: 7
bedstraw; [8]
  Bedstraw plant response rating: 9
Giant foxtail; [1]
  Giant foxtail plant response rating: 0
Giant foxtail; [2]
  Giant foxtail plant response rating: 1
Giant foxtail; [3]
  Plant response rating, Giant foxtail: 2
Giant foxtail; [4]
  Plant response rating, Giant foxtail: 5
Giant foxtail; [5]
  Plant response rating, Giant foxtail: 8
Giant foxtail; [6]
  Giant foxtail plant response rating: 9
Giant foxtail; [7]
  Giant foxtail plant response rating: 1
Giant foxtail; [8]
  Giant foxtail plant response rating: 3
Purple nutsedge; [1]
  Nutsedge plant response rating: 0
Purple nutsedge; [2]
  Nutsedge plant response rating: 0
Purple nutsedge; [3]
  Plant response rating, Nutsedge: 0
Purple nutsedge; [4]
  Plant response rating, Nutsedge: 0
Purple nutsedge; [5]
  Plant response rating, Nutsedge: 0
Purple nutsedge; [6]
  Nutsedge plant response rating: 0
Purple nutsedge; [7]
  Nutsedge plant response rating: 0
Purple nutsedge; [8]
  Nutsedge plant response rating: 0
Duck salad; [1]
  Ducksalad plant response rating: 0
Duck salad; [9]
  Ducksalad plant response rating: 0
Duck salad; [10]
  Ducksalad plant response rating: 7
Duck salad; [11]
  Ducksalad plant response rating: 0
Duck salad; [12]
  Ducksalad plant response rating: 0
Duck salad; [13]
  Ducksalad plant response rating: 7
Duck salad; [14]
  Plant response rating, Ducksalad: 1
Duck salad; [15]
  Ducksalad plant response rating: 0
Duck salad; [16]
  Ducksalad plant response rating: 0
Duck salad; [17]
  Ducksalad plant response rating: 7
rice; [1]
  Rice plant response rating: 0
rice; [9]
  Rice plant response rating: 0
rice; [10]
  Rice plant response rating: 0
rice; [11]
  Rice plant response rating: 0
rice; [12]
  Rice plant response rating: 0
rice; [13]
  Rice plant response rating: 5
rice; [14]
  Plant response rating, Rice: 0
rice; [15]
  Rice plant response rating: 0
rice; [16]
  Rice plant response rating: 0
rice; [17]
  Rice plant response rating: 2
bamyardgrass; [1]
  Barnyardgrass plant response rating: 0
bamyardgrass; [9]
  Barnyardgrass plant response rating: 2
bamyardgrass; [10]
  Barnyardgrass plant response rating: 0
bamyardgrass; [11]
  Barnyardgrass plant response rating: 2
bamyardgrass; [12]
  Barnyardgrass plant response rating: 2
bamyardgrass; [13]
  Barnyardgrass plant response rating: 10
bamyardgrass; [14]
  Plant response rating, Barnyardgrass: 8
bamyardgrass; [15]
  Barnyardgrass plant response rating: 9
bamyardgrass; Rate 2000 g/ha, Pre-emergence (as headed), scale 0 to 10, 0 no effect, 10 complete control
  Barnyardgrass plant response rating: 9
bamyardgrass; [17]
  Barnyardgrass plant response rating: 9
pigweed; [1]
  Redroot pigweed plant response rating: 1
pigweed; [2]
  Redroot pigweed plant response rating: 1
pigweed; [3]
  Plant response rating, Redroot pigweed: 4
pigweed; [4]
  Plant response rating, Redroot pigweed: 7
pigweed; [5]
  Plant response rating, Redroot pigweed: 8
pigweed; [6]
  Redroot pigweed plant response rating: 9
pigweed; [7]
  Redroot pigweed plant response rating: 1
pigweed; [8]
  Redroot pigweed plant response rating: 6
rape; [1]
  Rape plant response rating: 0
rape; [2]
  Rape plant response rating: 0
rape; [3]
  Plant response rating, Rape: 0
rape; [4]
  Plant response rating, Rape: 0
rape; [5]
  Plant response rating, Rape: 0
rape; [6]
  Rape plant response rating: 2
rape; [7]
  Rape plant response rating: 0
rape; [8]
  Rape plant response rating: 1

From US6737383B1, “Herbicidal oxadiazolidines” (priority 1999, dated 2004)
